Assay results reported in ChEMBL document CHEMBL2417511, “Probes for narcotic receptor mediated phenomena. 48. C7- and C8-substituted 5-phenylmorphan opioids from diastereoselective alkylation” (Eur J Med Chem, 2013).

What was measured:
Format in all cases: cell-based
[1] = biological target: Kappa-type opioid receptor (Homo sapiens, UniProt P41145); test: Displacement of [3H]U69,593 from human kappa opioid receptor expressed in CHO cells after 2 hrs by liquid scintillation counting
Mu-type opioid receptor = Mu-type opioid receptor (Homo sapiens, UniProt P35372); test: Displacement of [3H]DAMGO from human mu opioid receptor expressed in CHO cells after 2 hrs by liquid scintillation counting
[2] = biological target: Delta-type opioid receptor (Homo sapiens, UniProt P41143); test: Displacement of [3H]DADLE from human delta opioid receptor expressed in CHO cells after 2 hrs by liquid scintillation counting
Delta-type opioid receptor, sequence (P41143 whole entry): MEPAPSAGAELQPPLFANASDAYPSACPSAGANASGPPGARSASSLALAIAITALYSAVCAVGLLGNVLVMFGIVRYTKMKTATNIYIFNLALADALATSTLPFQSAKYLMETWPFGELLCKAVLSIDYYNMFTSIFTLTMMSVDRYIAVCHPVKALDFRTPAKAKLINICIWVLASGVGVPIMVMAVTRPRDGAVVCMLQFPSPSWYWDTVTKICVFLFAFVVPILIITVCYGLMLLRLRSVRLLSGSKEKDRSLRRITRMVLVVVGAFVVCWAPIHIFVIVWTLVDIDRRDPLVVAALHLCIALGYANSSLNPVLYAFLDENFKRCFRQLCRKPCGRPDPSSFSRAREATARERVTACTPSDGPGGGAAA

Mu-type opioid receptor, sequence (P35372 whole entry): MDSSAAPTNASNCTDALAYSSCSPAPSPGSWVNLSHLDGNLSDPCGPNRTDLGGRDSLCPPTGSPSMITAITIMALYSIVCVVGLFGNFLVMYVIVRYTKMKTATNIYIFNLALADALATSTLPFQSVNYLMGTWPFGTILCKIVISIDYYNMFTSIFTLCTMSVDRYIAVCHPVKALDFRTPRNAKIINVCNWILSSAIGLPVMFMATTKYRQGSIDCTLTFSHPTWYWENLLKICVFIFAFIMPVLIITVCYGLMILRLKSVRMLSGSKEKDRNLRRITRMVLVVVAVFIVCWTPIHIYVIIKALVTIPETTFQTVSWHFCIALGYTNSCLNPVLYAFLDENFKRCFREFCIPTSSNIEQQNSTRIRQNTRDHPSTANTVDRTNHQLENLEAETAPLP
Kappa-type opioid receptor, sequence (P41145 whole entry): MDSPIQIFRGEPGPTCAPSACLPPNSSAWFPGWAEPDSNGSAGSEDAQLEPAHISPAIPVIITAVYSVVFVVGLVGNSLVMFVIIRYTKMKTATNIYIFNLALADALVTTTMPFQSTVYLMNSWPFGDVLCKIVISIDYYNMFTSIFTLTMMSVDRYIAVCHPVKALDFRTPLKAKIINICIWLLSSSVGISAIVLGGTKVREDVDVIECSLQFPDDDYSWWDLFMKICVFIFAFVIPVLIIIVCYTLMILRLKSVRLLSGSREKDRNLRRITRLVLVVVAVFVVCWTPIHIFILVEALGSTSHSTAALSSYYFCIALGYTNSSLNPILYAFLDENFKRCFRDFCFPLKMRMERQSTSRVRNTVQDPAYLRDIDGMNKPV

SMILES: CN1CC[C@]2(c3cccc(O)c3)C[C@H](O)C[C@@H]1C2
- Ki [1]: 1.23 µM
- Ki (Mu-type opioid receptor): 0.022 µM
- Ki [2]: 1.96 µM
